2 molecules from publication PMC10867124, “Plant root associated chitinases: structures and functions” (Frontiers in Plant Science, 2024) can be followed below.

One series has as its target T1, ZmChi19A (Zea mays, UniProt B6TR38, E147A/E169A).
T1 construct: cDNA from maize root; signal peptide removed; N-terminal 10xHis-SUMO tag kept, TEV site; CBD, catalytic domain and flexible C-terminal domain; pET28b, E. coli; FPLC-purified
T1 sequence (B6TR38 26-334 E147A/E169A limits assumed): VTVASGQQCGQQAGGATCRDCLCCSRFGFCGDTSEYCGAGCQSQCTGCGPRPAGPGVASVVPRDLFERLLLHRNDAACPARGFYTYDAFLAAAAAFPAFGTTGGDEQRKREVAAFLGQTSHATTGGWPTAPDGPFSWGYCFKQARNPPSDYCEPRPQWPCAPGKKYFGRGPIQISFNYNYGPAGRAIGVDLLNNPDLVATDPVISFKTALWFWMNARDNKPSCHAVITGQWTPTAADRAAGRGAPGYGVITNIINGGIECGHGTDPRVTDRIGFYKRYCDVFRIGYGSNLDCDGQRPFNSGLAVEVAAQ
The series can be described thus: 4-MU release fluorescence, relative activity. It is filed as biochemical. The following applies: SUMO fusion; catalytic residues mutated.

Substrate in series [1]: CC(=O)N[C@H]1[C@H](Oc2ccc3c(C)cc(=O)oc3c2)O[C@H](CO)[C@@H](O[C@@H]2O[C@H](CO)[C@@H](O[C@@H]3O[C@H](CO)[C@@H](O)[C@H](O)[C@H]3NC(C)=O)[C@H](O)[C@H]2NC(C)=O)[C@@H]1O
The series can be described thus: 4-MU release fluorescence, Langmuir fit. It is filed as biochemical, Chitinophaga oryzae. The following applies: 50 °C, pH 8.

`CC(=O)N[C@H]1[C@H](Oc2ccc3c(C)cc(=O)oc3c2)O[C@H](CO)[C@@H](O[C@@H]2O[C@H](CO)[C@@H](O[C@@H]3O[C@H](CO)[C@@H](O)[C@H](O)[C@H]3NC(C)=O)[C@H](O)[C@H]2NC(C)=O)[C@@H]1O` [4-MU-GlcNAc3]: the “4-MU release fluorescence, relative activity” value at ZmChi19A is “ZmChi19A(E147A,E169A) showed almost complete loss of activity”.

B1: CspCh18A (Chitinophaga oryzae) (protein)
chain: CKKDEARPDNPQTKSEPRVETVTKAGGKSVCYVEVNSNSLLNTGKYTLTTGGQQLFDIAIIFAANINYNTTTGKAVLYNNPNVTNVLVNKNTQIVPLQNKGMKVLLSILGNHQGAGFCNFTSRAAAKAFAQQLADTANYYGLDGIDFDDEYADYGNNGLPQPNDSSFVMLLDELRKLMPTKIISFYYYGPAASRLSWGGKKAGDFINYSWNAMYGTYSVPNVAGLTKANLGPAAVDIQATSQSTANWLATQTKNNGYGIYLWYNLTSTDKHVYFSGVSNILYGSSVTYTP
notes: signal peptide removed; TEV site, His tag; pET28a, E. coli; TIM-barrel catalytic domain, no CBD; FPLC-purified
What is called Km is the substrate concentration at which the rate is half of its maximum. On to B1, for which, in series [1], the Km is 37 µM.
